# Measured values taken from patent US10808008B2, “Aromatic-cationic peptides and uses of same” (Cornell University, priority 2012, dated 2020).
# Like-named read-outs stand apart in the source and are kept apart here.
# Experiments:
# cytochrome c [1] = biological target: T1, cytochrome c (Equus caballus, UniProt P00004); experiment: Circular dichroism of Soret band of cytochrome c; type: biochemical
# Description: Circular dichroism (Olis spectropolarimeter, DSM20) was carried out to monitor Soret band (negative peak at 415 nm), as a probe for the π-π* heme environment in cytochrome c (FIG. 4). […] The increase in π-π* interaction around the heme would enhance electron tunneling which would be favorable for electron diffusion. Accordingly, aromatic-cationic peptides of the present disclosure are useful for the prevention or treatment of diseases or disorders characterized by dysregulation of cytochrome c, and to induce novel π-π interactions around cytochrome c heme.
# cytochrome c [2] = biological target: T1, cytochrome c; experiment: Cyclic voltammetry of cytochrome c; type: biochemical
# cytochrome c [3] = biological target: T1, cytochrome c; experiment: Photoluminescence of cytochrome c; type: biochemical; settings: excitation 532.8 nm
# Description: Photoluminescence (PL) was carried out to examine the effects of SS-31 on the electronic structure of conduction band of the heme of cytochrome c, an energy state responsible for electronic transport (FIG. 3). A […] laser (532.8 nm) was used to excite electrons in cytochrome c (FIG. 3A). Strong PL emission in cytochrome c state can be clearly identified at 650 nm (FIG. 3B). […] Accordingly, aromatic-cationic peptides of the present disclosure are useful for the prevention or treatment of diseases or disorders characterized by dysregulation of cytochrome c, for enhancing electron capacity in cytochrome c, and for treatment of diseases or disorders characterized by dysregulation of electron capacity in cytochrome c.
# [4] = biological target: T2, horse radish peroxidase (HRP) (Armoracia rusticana, UniProt P00433); experiment: Horseradish peroxidase activity (Amplex Red); type: biochemical; settings: data not shown
# T2 sequence (P00433 31-338 limits assumed): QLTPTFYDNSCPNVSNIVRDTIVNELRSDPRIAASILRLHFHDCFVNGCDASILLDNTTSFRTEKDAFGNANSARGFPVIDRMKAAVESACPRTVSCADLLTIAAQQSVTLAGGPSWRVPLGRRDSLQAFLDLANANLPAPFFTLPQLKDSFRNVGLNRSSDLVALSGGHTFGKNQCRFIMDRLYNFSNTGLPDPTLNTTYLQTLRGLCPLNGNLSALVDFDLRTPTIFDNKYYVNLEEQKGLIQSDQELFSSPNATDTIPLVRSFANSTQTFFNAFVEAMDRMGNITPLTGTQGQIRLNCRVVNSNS
# [5] = test system: isolated rat kidney mitochondria / cytochrome c-deficient mitoplasts; experiment: Fluorescence quenching by isolated mitochondria or cytochrome c-deficient mitoplasts; type: binding
# Description: The quenching by cytochrome c was not displaced by sequential additions of bovine serum albumin (FIG. 12C, A+arrows) (500 μg/ml). […] Accordingly, aromatic-cationic peptides of the present disclosure are useful for the prevention or treatment of diseases or disorders characterized by dysregulation of cytochrome c.
# Uptake of [atn]SS-02 by isolated mitochondria or cytochrome c-deficient mitoplasts was determined by fluorescence quenching of [atn]SS-02 (λex/λem=320/420) upon addition of a fresh mitochondrial or mitoplast suspension (0.35 mg).
# Mitochondria were isolated from the kidney of male Sprague-Dawley rats (Charles River Laboratories International, Inc., Wilmington, Mass.) weighing 250 to 300 g. Excised kidneys were cut and incubated in wash buffer (200 mM mannitol, 10 mM sucrose, 5 mM HEPES, 1 g/L fatty-acid-free BSA, to pH to 7.4 with KOH) on ice for 10 minutes. Samples were washed 2 times in isolation buffer (wash buffer with 1 mM EGTA), homogenized for 3 minutes, and then centrifuged in 20 ml of isolation buffer at 900×g for 10 minutes. The white fatty acid layer was then removed and the […]. The supernatant was centrifuged at 11,000×g for 10 minutes, and the pellet was re-suspended in 800 μl of wash buffer and kept on ice for further analysis.
# Mitoplasts deficient in cytochrome c were prepared by first treating fresh or once-frozen mitochondria with 3.3 mg/ml digitonin for 45 minutes on ice, in order to remove the mitochondrial outer membrane. To remove electrostatically-bound cytochrome c, […] pH 7.4 was then added to the mix and centrifuged at 19,000×g for 30 minutes. The pellet was collected and re-dissolved in wash buffer and stored on ice until use. Only mitoplast preparations that responded to the addition of 200 nM exogenous cytochrome c by 4-5 fold increase in mitochondrial respiration (oxygen consumption) were used in the study. […]
# T1 sequence (P00004 2-105 limits assumed): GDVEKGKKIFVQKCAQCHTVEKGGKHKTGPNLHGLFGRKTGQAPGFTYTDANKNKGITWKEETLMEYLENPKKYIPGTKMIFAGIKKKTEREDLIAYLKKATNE
Substance,position of Soret band negative peak after peptide (415 nm before) (cytochrome c [1]),reduction/oxidation potentials of cytochrome c (cytochrome c [2]),"current of cytochrome c reduction and oxidation processes (cytochrome c [2]; Au working electrode, Ag/AgCl reference)","increase of current (electron diffusion rate) (cytochrome c [2]; cytochrome c:SS-31=1:2, TBE buffer)",photoluminescence (PL) intensity of cytochrome c at 650 nm (cytochrome c [3]),HRP activity [4],quenching of fluorescence by cytochrome c-depleted/deficient mitoplasts versus mitochondria [5],"quenching of fluorescence by isolated mitochondria ([5]; 10 μM peptide, 0.2 mg mitochondria)",quenching of fluorescence by cytochrome c-depleted/deficient mitoplasts versus mitochondria ([5]; listed as [atn]SS-02)
"D-Arg-2′,6′-Dmt-Lys-Phe-NH2 [SS-31]",440 nm,does not alter reduction/oxidation potentials,increased current for both reduction and oxidation processes of cytochrome c,~200%,increased dose-dependently,no effect,,,
"2′,6′-Dmt-D-Arg-Phe-(atn)Dap-NH2 [SS-19]",,,,,,,significantly reduced,quenched by sequential addition of 0.2 mg isolated rat renal kidney mitochondria,appreciable in cytochrome c-deficient mitoplasts but was less than in intact mitochondria
